Data reported in patent publication US8519149B2, “Tricyclic compounds as mPGES-1 inhibitors” (Glenmark Pharmaceuticals S.A., priority 2010, dated 2013).

Biological target: T1, Recombinant human mPGES-1 (Homo sapiens, UniProt O14684)
T1 sequence (O14684 1-152): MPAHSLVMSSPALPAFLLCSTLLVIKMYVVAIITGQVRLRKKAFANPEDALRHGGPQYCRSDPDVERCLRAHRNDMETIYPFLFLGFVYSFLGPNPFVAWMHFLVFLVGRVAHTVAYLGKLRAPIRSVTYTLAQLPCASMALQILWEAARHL
Assay: In-vitro mPGES-1 enzyme inhibition assay (PGE2 formation from PGH2, HTRF detection)
Assay type: biochemical
Conditions: for inhibition at 1 µM: read-out: Percentage inhibition at 1 μM; for inhibition at 10 µM: 10 μM test compound, read-out: Percentage inhibition at 10 μM; for IC50: class symbols, selected examples
Source text: In-Vitro Protocol for Screening of mPGES-1 Inhibitors: mPGES-1 (microsomal prostaglandin E synthase-1) is a microsomal enzyme that converts endoperoxide substrate PGH2 (prostaglandin H2) to product PGE2 (prostaglandin E2) by isomerization in the presence of reduced glutathione (GSH). mPGES-1 inhibitors were screened by assessing their ability to inhibit formation of PGE2 from PGH2 in presence of mPGES-1 using anti-PGE2 antibody based detection method. […] Assay was set up using crude microsomal fractions at protein concentration of 40-60 μg/mL. […] Final concentration of DMSO in reaction was 0.5% (v/v). Negative controls comprised of all assay reagents except the enzyme. Positive controls comprised of enzyme reaction in the absence of any inhibitor. […] Reaction was stopped by addition of Stannous chloride (11 mg/ml) and PGE2 levels were measured ([…] et al. […] Inhibition of mPGES-1 enzyme activity was measured using percent of reaction occurring in the positive control. Concentration response curves were plotted using percent inhibition of maximum enzyme reaction. IC50 value was calculated from concentration response curve by nonlinear regression analysis using GraphPad PRISM software.

[1] = 1 μM test compound, recombinant human mPGES-1 microsomal fraction
[2] = recombinant human mPGES-1 microsomal fraction

Cn1c(Nc2c(Cl)cncc2Cl)nc2cc(C(=O)Nc3cccc(C(F)(F)F)c3)c3c(c21)CC(C)(C)O3 [Example-214, 2-((3,5-Dichloropyridin-4-yl)amino)-1,7,7-trimethyl-N-(3-(trifluoromethyl)phenyl)-7,8-dihydro-1H-benzofuro[4,5-d]imidazole-5-carboxamide]
inhibition at 1 µM [1]: 98.4%
inhibition at 10 µM [2]: 96.5%

Cc1cccc(Cl)c1Nc1nc2cc(C(=O)NCc3ccc(F)cc3C(F)(F)F)c3c(c2[nH]1)CC(C)(C)O3 [Example-130, 2-((2-Chloro-6-methylphenyl)amino)-N-(4-fluoro-2-(trifluoromethyl)benzyl)-7,7-dimethyl-7,8-dihydro-1H-benzofuro[4,5-d]imidazole-5-carboxamide]
inhibition at 1 µM [1]: 74.6%
inhibition at 10 µM [2]: 96.8%

CC1(C)Cc2c(c(C(=O)Nc3ncc(Cl)cc3F)cc3nc(Nc4c(F)cccc4Cl)[nH]c23)O1 [Example-126, N-(5-Chloro-3-fluoropyridin-2-yl)-2-((2-chloro-6-fluorophenyl)amino)-7,7-dimethyl-7,8-dihydro-1H-benzofuro[4,5-d]imidazole-5-carboxamide]
inhibition at 1 µM [1]: 96.6%
inhibition at 10 µM [2]: 97.7%
IC50: < 50 nM

CC1(C)Cc2c(c(C(=O)Nc3ccc(Br)cc3)cc3nc(Nc4c(Cl)cccc4Cl)[nH]c23)O1 [Example-11, N-(4-Bromophenyl)-2-[(2,6-dichlorophenyl)amino]-7,7-dimethyl-7,8-dihydro-1H-furo[3,2-e]benzimidazole-5-carboxamide]
Percentage inhibition at 1 μM (1 μM test compound, recombinant human mPGES-1 microsomal fraction, 1 µM): 97.45%
inhibition at 1 µM [1]: 100%
inhibition at 10 µM [2]: 100%
IC50: < 50 nM

Cc1nc2c(o1)c(C(=O)NCc1ccccc1C(F)(F)F)cc1nc(Nc3c(Cl)cccc3Cl)[nH]c12 [Example-188, 7-[(2,6-Dichlorophenyl)amino]-2-methyl-N-[2-(trifluoromethyl)benzyl]-8H-imidazo[4,5-e][1,3]benzoxazole-4-carboxamide]
inhibition at 1 µM [1]: 98.1%
inhibition at 10 µM [2]: 99.4%
IC50: 50 to 100 nM

CC1(C)Cc2c(c(C(=O)NCc3ccccc3Br)cc3nc(Nc4c(Cl)cccc4Cl)[nH]c23)O1 [Example-84, N-(2-Bromobenzyl)-2-[(2,6-dichlorophenyl)amino]-7,7-dimethyl-7,8-dihydro-1H-furo[3,2-e]benzimidazole-5-carboxamide]
inhibition at 1 µM [1]: 93.7%
inhibition at 10 µM [2]: 94.4%
IC50: < 50 nM

CC1(C)Cc2c(c(C(=O)Nc3ccc(Cl)cc3)cc3nc(Nc4ccccc4Cl)[nH]c23)O1 [Example-18, N-(4-Chlorophenyl)-2-[(2-chlorophenyl)amino]-7,7-dimethyl-7,8-dihydro-1H-furo[3,2-e]benzimidazole-5-carboxamide]
inhibition at 1 µM [1]: 98.4%
inhibition at 10 µM [2]: 99.8%
IC50: < 50 nM

CC1(C)Cc2c(c(C(=O)Nc3ccc(OC(F)F)nc3)cc3nc(Nc4c(F)cccc4Cl)[nH]c23)O1 [Example-115, 2-[(2-Chloro-6-fluorophenyl)amino]-N-[6-(difluoromethoxy)pyridin-3-yl]-7,7-dimethyl-7,8-dihydro-1H-furo[3,2-e]benzimidazole-5-carboxamide]
inhibition at 1 µM [1]: 100%
inhibition at 10 µM [2]: 100%
IC50: < 50 nM

CC1(C)Cc2c(c(C(=O)NCC3CC3)cc3nc(Nc4c(Cl)cncc4Cl)[nH]c23)O1 [Example-21, N-(Cyclopropylmethyl)-2-[(3,5-dichloropyridin-4-yl)amino]-7,7-dimethyl-7,8-dihydro-1H-furo[3,2-e]benzimidazole-5-carboxamide]
inhibition at 1 µM [1]: 96.8%
inhibition at 10 µM [2]: 99.8%

CC1(C)Cc2c(c(C(=O)NC3(c4ccccc4C(F)(F)F)CC3)cc3nc(Nc4c(F)cccc4Cl)[nH]c23)O1 [Example-118, 2-[(2-Chloro-6-fluorophenyl)amino]-7,7-dimethyl-N-{1-[2-(trifluoromethyl)phenyl]cyclopropyl}-7,8-dihydro-1H-furo[3,2-e]benzimidazole-5-carboxamide]
inhibition at 1 µM [1]: 97%
inhibition at 10 µM [2]: 98.7%
IC50: > 100 nM

Cn1c(Nc2c(Cl)cncc2Cl)nc2cc(C(=O)Nc3ccc(C(F)(F)F)cc3)c3c(c21)CC(C)(C)O3 [Example-215, 2-((3,5-dichloropyridin-4-yl)amino)-1,7,7-trimethyl-N-(4-(trifluoromethyl)phenyl)-7,8-dihydro-1H-benzofuro[4,5-d]imidazole-5-carboxamide]
inhibition at 1 µM [1]: 96.3%
inhibition at 10 µM [2]: 94.1%

CC1(C)Cc2c(c(C(=O)NCC(F)(F)F)cc3nc(Nc4c(Cl)cccc4Cl)[nH]c23)O1 [Example-62, 2-[(2,6-Dichlorophenyl)amino]-7,7-dimethyl-N-(2,2,2-trifluoroethyl)-7,8-dihydro-1H-furo[3,2-e]benzimidazole-5-carboxamide]
inhibition at 1 µM [1]: 96.8%
inhibition at 10 µM [2]: 94.3%

Cc1cc2c(o1)c(C(=O)NCCC(C)C)cc1nc(Nc3c(Cl)cncc3Cl)[nH]c12 [Example-50, 2-[(3,5-Dichloropyridin-4-yl)amino]-7-methyl-N-(3-methylbutyl)-1H-furo[3,2-e]benzimidazole-5-carboxamide]
inhibition at 1 µM [1]: 89.2%
inhibition at 10 µM [2]: 99.3%

Cc1cccc(Cl)c1Nc1nc2cc(C(=O)Nc3ccc(F)c(F)c3F)c3c(c2[nH]1)CC(C)(C)O3 [Example-202, 2-((2-Chloro-6-methylphenyl)amino)-7,7-dimethyl-N-(2,3,4-trifluorophenyl)-7,8-dihydro-1H-benzofuro[4,5-d]imidazole-5-carboxamide]
inhibition at 1 µM [1]: 95.1%
inhibition at 10 µM [2]: 100%
IC50: < 50 nM

CC1(C)Cc2c(c(C(=O)Nc3cccc(C4CC4)c3)cc3nc(Nc4c(F)cccc4Cl)[nH]c23)O1 [Example-165, 2-((2-Chloro-6-fluorophenyl)amino)-N-(3-cyclopropylphenyl)-7,7-dimethyl-7,8-dihydro-1H-benzofuro[4,5-d]imidazole-5-carboxamide]
inhibition at 1 µM [1]: 99.4%
inhibition at 10 µM [2]: 98.1%
IC50: < 50 nM

Cc1csc(NC(=O)c2cc3nc(Nc4c(F)cccc4Cl)[nH]c3c3c2OC(C)(C)C3)n1 [Example-54, 2-[(2-Chloro-6-fluorophenyl)amino]-7,7-dimethyl-N-(4-methyl-1,3-thiazol-2-yl)-7,8-dihydro-1H-furo[3,2-e]benzimidazole-5-carboxamide]
inhibition at 1 µM [1]: 79.2%
inhibition at 10 µM [2]: 92.8%

CCCCCCNC(=O)c1cc2nc(Nc3c(Cl)cccc3Cl)[nH]c2c2nc(C)oc12 [Example-181, 7-[(2,6-Dichlorophenyl)amino]-N-hexyl-2-methyl-8H-imidazo[4,5-e][1,3]benzoxazole-4-carboxamide]
inhibition at 1 µM [1]: 89.5%
inhibition at 10 µM [2]: 93.9%
IC50: < 50 nM

CC1(C)Cc2c(c(C(=O)Nc3ccc(F)cc3C#N)cc3nc(Nc4c(F)cccc4Cl)[nH]c23)O1 [Example-105, 2-[(2-Chloro-6-fluorophenyl)amino]-N-(2-cyano-4-fluorophenyl)-7,7-dimethyl-7,8-dihydro-1H-furo[3,2-e]benzimidazole-5-carboxamide]
inhibition at 1 µM [1]: 91.2%
inhibition at 10 µM [2]: 95.5%
IC50: > 100 nM

COCCn1c(Nc2c(Cl)cccc2Cl)nc2cc(C(=O)Nc3ccc(C(F)(F)F)cc3)c3c(c21)CC(C)(C)O3 [Example-99, 2-[(2,6-Dichlorophenyl)amino]-1-(2-methoxyethyl)-7,7-dimethyl-N-[4-(trifluoromethyl)phenyl]-7,8-dihydro-1H-furo[3,2-e]benzimidazole-5-carboxamide]
inhibition at 1 µM [1]: 95.3%
inhibition at 10 µM [2]: 99.7%
IC50: < 50 nM

CC1(C)Cc2c(c(C(=O)NC3CCCCC3)cc3nc(Nc4c(Cl)cncc4Cl)sc23)O1 [Example-28, N-Cyclohexyl-2-[(3,5-dichloropyridin-4-yl)amino]-7,7-dimethyl-7,8-dihydrofuro[2,3-g][1,3]benzothiazole-5-carboxamide]
inhibition at 1 µM [1]: 87.3%
inhibition at 10 µM [2]: 98.9%
IC50: > 100 nM

CC1(C)Cc2c(c(C(=O)Nc3ccccc3C(F)(F)F)cc3nc(Nc4ccccc4C(C)(C)C)[nH]c23)O1 [Example-98, 2-[(2-tert-Butylphenyl)amino]-7,7-dimethyl-N-[2-(trifluoromethyl)phenyl]-7,8-dihydro-1H-furo[3,2-e]benzimidazole-5-carboxamide]
inhibition at 1 µM [1]: 12%
inhibition at 10 µM [2]: 13.9%

Cc1ccc(NC(=O)c2cc3nc(Nc4c(F)cccc4Cl)n(C)c3c3c2OC(C)(C)C3)c(F)c1 [Example-154, 2-((2-Chloro-6-fluorophenyl)amino)-N-(2-fluoro-4-methylphenyl)-1,7,7-trimethyl-7,8-dihydro-1H-benzofuro[4,5-d]imidazole-5-carboxamide]
inhibition at 1 µM [1]: 99.8%
inhibition at 10 µM [2]: 100%
IC50: < 50 nM

CC1(C)Cc2c(c(C(=O)NC3CCCCC3)cc3nc(Nc4c(Cl)cccc4Cl)[nH]c23)O1 [Example-7, N-Cyclohexyl-2-[(2,6-dichlorophenyl)amino]-7,7-dimethyl-7,8-dihydro-1H-furo[3,2-e]benzimidazole-5-carboxamide]
inhibition at 1 µM [1]: 100%
inhibition at 10 µM [2]: 96.2%
IC50: < 50 nM
